Where two headings read alike, the source gives them in different places. No end group written: not given here.
Experiments:
APEC O78 = assay type: cell-based, E. coli
Protocol: Anti-APEC activity determination: The anti-APEC activity of peptides was determined in LB broth following CLSI guidelines. Briefly, overnight grown APEC O78 was adjusted to 5×10^5 CFU/mL concentration in fresh LB media. One-hundred microliters of APEC suspension was aliquoted into the wells of the 96-well plate. Peptides were added to the wells at 6 mM and 12 mM concentrations and incubated at 37° C. in TECAN Sunrise™ absorbance microplate reader with kinetic absorbance measurement set at every 30 mins for 12 h. Sterile media and DMSO (solvent) were used as controls. The growth inhibitory activity of the peptides against APEC was calculated using the formula: (OD600 DMSO treated well−OD600 peptide treated well)/OD600 DMSO treated well×100%.
The minimum inhibitory concentration (MIC) was determined for selected peptides (P1, P2, P3, and P4) using similar assay as above. Peptides were added to the wells of the 96-well plate at 6 mM, 9 mM, 12 mM, 15 mM, and 18 mM concentrations. The peptide concentration at which there is no visible APEC growth (no OD increase) was determined as MIC. Two independent experiments were conducted.
Arginine and lysine substituted peptide analogues: The non-essential amino acid residues identified in each peptide were substituted with arginine/lysine to test whether these substitutions enhance the anti-APEC activity of peptides. The MICs of arginine and lysine substituted peptide analogues ([…] (SEQ ID NO:37), […] (SEQ ID NO:38), […] (SEQ ID NO:39), KDENK (SEQ ID NO:41), PDEKK (SEQ ID NO:42), KDEKK (SEQ ID NO:43), KHTAPK (SEQ ID NO:45), VKTAPK (SEQ ID NO:46), VHTKPK (SEQ ID NO:47), and KKTKPK (SEQ ID NO:48)) were determined as above and compared with original peptides.

[1] = tested on: Salmonella enterica subsp. enterica serovar Typhimurium LT2 (ST); test: Anti-Salmonella growth inhibition and MIC; assay type: cell-based; details: No treatment
Protocol: Primary screening for anti-Salmonella activity of peptides: The inhibitory effect of the peptides was accessed as described previously. ST was grown overnight and adjusted to 5×10^5 CFU/mL; 100 microliters of this measured concentration was placed into the wells of a 96 well plate. Peptides 1-6 were added to the well at 12 mM concentration and plate was incubated in a TECAN Sunrise™ absorbance microplate reader at 37° C. with kinetic absorbance measurements taken every 30 minutes for 12 h. The growth inhibitory activity was calculated with the formula (OD600 DMSO treated well-OD600 peptide treated well)/OD600 DMSO treated well×100%. DMSO treated, Salmonella challenged wells and sterile media with no Salmonella challenge were used as controls. This experiment was done twice to ensure the accuracy and reproducibility of the results.
MIC was determined by selecting peptide concentration at which there is no increased growth (no increase in OD), given indication of no ST growth. An independent repeat experiment was conducted.
Heat and protease tolerance of peptides: P1, P2, and P4 were heated for 6 minutes at 86° C. or treated with protease proteinase K, 200 μg/mL at 50° C. for 30 minutes. After which, the treated and/or heated peptides at their respective MICs were evaluated in the inhibition assay with Salmonella. The protocol from above was repeated in the Tecan with the same controls. […]

Biofilm embedded SE = test: MBEC Assay; assay type: cell-based, Salmonella enterica; details: at MICs; untreated 6.77 ± 0.02
Protocol: (§1) Peptides effect against biofilm embedded Salmonella: To analyze the ability of the peptides (P1, P2, and P4) to retain their inhibitory characteristics against biofilm protected Salmonella, Innovotech's MBEC Assay® (Innovotech Inc., AB, Canada) was conducted as previously detailed. Initially, 150 μL of 5×10^7 CFU/mL adjusted ST or SE suspension in LB media was aliquoted into the wells of MBEC inoculator plates containing polystyrene pegs and incubated for 36 h on a rocker platform at 37° C. to allow the biofilm formation. After biofilm formation, the pegs were washed to remove loosely adherent planktonic bacteria and transferred to a new 96-well plate containing peptides at MICs, with relevant controls, in 200 μL 25% LB media. The diluted LB media was used because it allows for slow bacterial growth to promote biofilm formation due to limited nutrients. The plate was incubated for 18 h at 37° C. with rotation at 150 rpm. Sterile media and DMSO were used as controls. Following incubation, the MICs of peptides in challenge plate were recorded. The pegs were transferred to new 96-well plate containing PBS and sonicated for 30 minutes to disrupt the biofilm. The sonicated suspensions were then ten-fold serially diluted and plated on LB agar plates to enumerate the biofilm protected bacteria and determine the minimum biofilm eradication concentration (MBEC) of peptides. Three independent experiments were conducted to ensure accuracy.

Biofilm embedded ST = test: MBEC Assay; assay type: cell-based, Salmonella enterica; details: at MICs; untreated 6.46 ± 0.09
Protocol: as §1

Substance	MIC (APEC O78) [mM]	MIC50 (APEC O78) [mM]	MIC against ST [1] [mM]	Biofilm embedded SE (Biofilm embedded SE) [Log CFU/mL]	Biofilm embedded ST (Biofilm embedded ST) [Log CFU/ml]	MIC (APEC O78; 100% APEC growth inhibition) [mM]
MLNERVK [Peptide P4, MLNERVK]	> 18	20.0	18	0.00 ± 0.00	0.00 ± 0.00	–
PDENK [Peptide P2, PDENK]	–	9.5	15	0.00 ± 0.00	0.00 ± 0.00	12
